Reference: PubChem BioAssay (NCI)
Where “and” joins values, the source holds several entries; their conditions need not be identical. Equal values may be shown once.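 1) Cells in 96-well plates. 2) Compound, 48 h, 5 concentrations. 3) Linear interpolation between surrounding doses. 4) Unreached endpoint = highest concentration. Abbreviation: GI50, concentration required for 50% inhibition of growth. At the TGI there is no net growth.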

What was measured:
Experiment in all cases: inhibition of tumour cell growth, NCI panel, 48 h
T-47D breast = tested on: T-47D breast
HCT-15 colon = tested on: HCT-15 colon
M14 melanoma = tested on: M14 melanoma
BT-549 breast = tested on: BT-549 breast
OVCAR-4 ovarian = tested on: OVCAR-4 ovarian
RPMI-8226 leukemia = tested on: RPMI-8226 leukemia
SK-MEL-2 melanoma = tested on: SK-MEL-2 melanoma
SNB-75 CNS = tested on: SNB-75 CNS
SN12C renal = tested on: SN12C renal
K-562 leukemia = tested on: K-562 leukemia
IGROV1 ovarian = tested on: IGROV1 ovarian
COLO 205 colon = tested on: COLO 205 colon
MALME-3M melanoma = tested on: MALME-3M melanoma
NCI/ADR-RES ovarian = tested on: NCI/ADR-RES ovarian

SMILES	TGI (T-47D breast) [µM]	TGI (HCT-15 colon) [µM]	TGI (M14 melanoma) [µM]	TGI (BT-549 breast) [µM]	TGI (OVCAR-4 ovarian) [µM]	TGI (RPMI-8226 leukemia) [µM]	TGI (SK-MEL-2 melanoma) [µM]	TGI (SNB-75 CNS)	TGI (SN12C renal) [µM]	TGI (K-562 leukemia) [µM]	TGI (IGROV1 ovarian) [µM]	TGI (COLO 205 colon) [µM]	TGI (MALME-3M melanoma) [µM]	TGI (NCI/ADR-RES ovarian) [µM]	GI50 (OVCAR-4 ovarian)	GI50 (MALME-3M melanoma) [µM]	GI50 (SK-MEL-2 melanoma)	GI50 (SNB-75 CNS)
CCN(CC)c1ccc2cc(-c3csc(C)n3)c(=O)oc2c1	> 100	> 100	> 100	> 100	> 100	> 100	> 100	9.42 µM	> 100	> 100	> 100	> 100						
COc1ccc(-c2cc(=O)c3ccc(F)cc3[nH]2)cc1			> 100		> 100	> 100		> 100 µM	> 100	> 100	> 100	> 100	> 100					
C=CCN(N=O)C(=O)N(CCCCC(NC(C)=O)C(=O)NCc1ccccc1)Cc1ccccc1 (centres undefined)		> 100	62.4		> 100	41.9	> 100	> 100 µM	> 100	> 100	> 100	51.7	58.9					
CC(C)(C)OC(=O)NC(Cc1ccc(OCc2ccccc2)cn1)C(N)=O (centres undefined)		> 100		> 100	> 100	> 100		> 100 µM	> 100	> 100	> 100	> 100	> 100	> 100				
O=C(Nc1ccccc1[N+](=O)[O-])C(=O)C(C(=O)c1ccccc1-c1ccccc1)C1OC(=O)c2ccccc21 (centres undefined)		30	28.9		> 100	78.3	65.2	53.4 µM	30.3	60.6	51.3	32.6	29.9					
O=C1COc2cc3c(cc2N1)SCCC(=O)N3			> 100		> 100	> 100	> 100	> 100 µM	> 100	> 100	> 100	> 100	> 100					
COc1ccc(/C(=C\c2cc(OC)c(OC)c(OC)c2)C(=O)O)cc1		> 100	> 100		> 100	84.6		75.1 µM	> 100	> 100	> 100	35.2	> 100					
COc1cccc(N2C(=O)C3c4[nH]c5ccc(C)cc5c4C4CCC(C)CC4C3C2=O)c1 (centres undefined)		> 100	> 100	> 100		> 100	> 100		> 100	> 100	> 100	> 100	> 100	> 100				
O=c1[nH]c2cc3[nH]c(=O)c(=O)[nH]c3cc2[nH]c1=O		> 100	> 100	> 100		> 100	> 100	> 100 µM	> 100	> 100	> 100	> 100	> 100	> 100				
CNc1cccc2c1C(C)C[C@]1(C)C(=O)Nc3ccccc3[C@H]21 (some centres undefined)	> 100	> 100	41.5		35.9	> 100	55.3	28.3 µM	48.5	> 100	> 100	> 100	47.7	45.4				
O=[N+]([O-])c1cc(Cl)ccc1S(=O)(=O)c1ccc(Cl)cc1[N+](=O)[O-]		33	30.4		37.2	> 100	33	29.7 µM	29.1	> 100	29.4	30.7	26.6					
CC(=O)OCC1OC(n2c(=S)n(-c3ccccc3)c(=O)c3cc(Br)ccc32)C(OC(C)=O)C(OC(C)=O)C1OC(C)=O (centres undefined)		> 100	> 100		> 100	> 100	> 100	99.2 µM and > 100 µM	> 100	> 100	> 100	> 100	> 100		10.6 µM and > 100 µM	> 100	47 µM and > 100 µM	33.8 µM and > 100 µM
O=c1[nH]cc(COCC(O)CO)c(=O)[nH]1 (centres undefined)		> 100	> 100		> 100	> 100	> 100	> 100 µM	> 100	> 100	> 100	> 100	> 100					
Oc1ccc2ccccc2c1NCn1nc(CCCCCCCCc2nn(CNc3c(O)ccc4ccccc34)c(=S)o2)oc1=S		> 100	> 100	> 100	> 100	> 100	> 100	> 100 µM	> 100	> 100	> 100	> 100	> 100	> 100				
CC1CN=C(NS(=O)(=O)c2cc(C(=O)Nc3ccccc3)c(Cl)cc2S)NN1 (centres undefined)		> 100	> 100	> 100	> 100	> 100	71.6		> 100	> 100	83.3	> 100	77	> 100				
CNC(=O)OCc1nc(N=[N+]=[N-])n(C)c1COC(=O)NC		> 100		> 10	> 100	> 100	80.6	> 100 µM	> 100	> 100	> 100	> 100	> 100	> 100				
COc1ccc(C(c2cc(OC)c(OC)c(OC)c2)N2C(=O)CCC2C(=O)O)cc1 (centres undefined)	> 100	> 100	> 100		> 100	> 100	> 100	> 100 µM	> 100	> 100	> 100	> 100	> 100	> 100				
COC1=CC(=O)c2c(n[nH]c2CCNC(=O)OCc2ccccc2)C1=O	18.3	30.8	26.7	32.5		39.1	23.7		30.1	44.9	29	33.9	6.5	> 100				
